From PubChem BioAssay AID1259407 (Chemical Carcinogenesis Research Information System (CCRIS), 2018)
The source made the active and inactive calls. No rule for the calls is given here.

Tested on: CCRIS mutagenicity, Ames/micronucleus/aberration tests
Assay: CCRIS mutagenicity studies
[1] = Test System: AMES SALMONELLA TYPHIMURIUM, Strain/Indicator: TA98, Metabolic Activation: NONE, Method: STANDARD PLATE
[2] = Test System: AMES SALMONELLA TYPHIMURIUM, Strain/Indicator: TA98, Metabolic Activation: RAT, LIVER, S-9, AROCLOR 1254, Method: STANDARD PLATE
[3] = Test System: AMES SALMONELLA TYPHIMURIUM, Strain/Indicator: TA100, Metabolic Activation: NONE, Method: STANDARD PLATE
[4] = Test System: AMES SALMONELLA TYPHIMURIUM, Strain/Indicator: TA100, Metabolic Activation: RAT, LIVER, S-9, AROCLOR 1254, Method: STANDARD PLATE
[5] = Test System: AMES SALMONELLA TYPHIMURIUM, Strain/Indicator: TA102, Metabolic Activation: NONE, Method: STANDARD PLATE
[6] = Test System: AMES SALMONELLA TYPHIMURIUM, Strain/Indicator: TA1535, Metabolic Activation: NONE, Method: STANDARD PLATE

For CC1(C)[C@@H]2CC[C@@]1(C)C(=O)C2=O, the mutagenic call (Test System: AMES SALMONELLA TYPHIMURIUM, Strain/Indicator: TA97A, Metabolic Activation: NONE, Method: STANDARD PLATE) was “inactive; negative”, the mutagenic call (Test System: AMES SALMONELLA TYPHIMURIUM, Strain/Indicator: TA97A, Metabolic Activation: RAT LIVER S-9, AROCLOR 1254, Method: STANDARD PLATE) was “inactive; negative” and the mutagenic call (Test System: AMES SALMONELLA TYPHIMURIUM, Strain/Indicator: TA98, Metabolic Activation: HAMSTER, LIVER, S-9, AROCLOR 1254, Method: STANDARD PLATE) was “inactive; negative”. The mutagenic call [1] was “inactive; negative”, the mutagenic call (Test System: AMES SALMONELLA TYPHIMURIUM, Strain/Indicator: TA98, Metabolic Activation: RAT LIVER S-9, AROCLOR 1254, Method: STANDARD PLATE) was “inactive; negative” and the mutagenic call [2] was “inactive; negative”. The mutagenic call (Test System: AMES SALMONELLA TYPHIMURIUM, Strain/Indicator: TA100, Metabolic Activation: HAMSTER, LIVER, S-9, AROCLOR 1254, Method: STANDARD PLATE) was “inactive; negative”, the mutagenic call [3] was “inactive; negative” and the mutagenic call (Test System: AMES SALMONELLA TYPHIMURIUM, Strain/Indicator: TA100, Metabolic Activation: RAT LIVER S-9, AROCLOR 1254, Method: STANDARD PLATE) was “inactive; negative”. The mutagenic call [4] was “inactive; negative”, the mutagenic call [5] was “inactive; negative” and the mutagenic call (Test System: AMES SALMONELLA TYPHIMURIUM, Strain/Indicator: TA102, Metabolic Activation: RAT LIVER S-9, AROCLOR 1254, Method: STANDARD PLATE) was “inactive; negative”. The mutagenic call (Test System: AMES SALMONELLA TYPHIMURIUM, Strain/Indicator: TA1535, Metabolic Activation: HAMSTER, LIVER, S-9, AROCLOR 1254, Method: STANDARD PLATE) was “inactive; negative”, the mutagenic call [6] was “inactive; negative” and the mutagenic call (Test System: AMES SALMONELLA TYPHIMURIUM, Strain/Indicator: TA1535, Metabolic Activation: RAT, LIVER, S-9, AROCLOR 1254, Method: STANDARD PLATE) was “inactive; negative”. For the same compound, the mutagenic call (Test System: AMES SALMONELLA TYPHIMURIUM, Strain/Indicator: TA1537, Metabolic Activation: HAMSTER, LIVER, S-9, AROCLOR 1254, Method: STANDARD PLATE) was “inactive; negative”, the mutagenic call (Test System: AMES SALMONELLA TYPHIMURIUM, Strain/Indicator: TA1537, Metabolic Activation: NONE, Method: STANDARD PLATE) was “inactive; negative” and the mutagenic call (Test System: AMES SALMONELLA TYPHIMURIUM, Strain/Indicator: TA1537, Metabolic Activation: RAT, LIVER, S-9, AROCLOR 1254, Method: STANDARD PLATE) was “inactive; negative”. For the same compound, the mutagenic call (Test System: AMES SALMONELLA TYPHIMURIUM, Strain/Indicator: TA1538, Metabolic Activation: HAMSTER, LIVER, S-9, AROCLOR 1254, Method: STANDARD PLATE) was “inactive; negative”, the mutagenic call (Test System: AMES SALMONELLA TYPHIMURIUM, Strain/Indicator: TA1538, Metabolic Activation: NONE, Method: STANDARD PLATE) was “inactive; negative” and the mutagenic call (Test System: AMES SALMONELLA TYPHIMURIUM, Strain/Indicator: TA1538, Metabolic Activation: RAT, LIVER, S-9, AROCLOR 1254, Method: STANDARD PLATE) was “inactive; negative”. The mutagenic call (Test System: Mouse lymphoma, Strain/Indicator: L5178Y (tk+/tk-), Metabolic Activation: None, Method: Suspension/plate) was “active; positive” and the mutagenic call (Test System: Mouse lymphoma, Strain/Indicator: L5178Y (tk+/tk-), Metabolic Activation: Rat, Liver, S-9, Aroclor 1254, Method: Suspension/plate) was “inactive; negative”.

CC(C)[C@](O)(C(=O)O)[C@@H](C)O was tested, and the mutagenic call (Test System: AMES SALMONELLA TYPHIMURIUM, Strain/Indicator: TA100, Metabolic Activation: HAMSTER, LIVER, S-9, PCB, Method: PREINCUBATION) was “inactive; negative” and the mutagenic call (Test System: AMES SALMONELLA TYPHIMURIUM, Strain/Indicator: TA100, Metabolic Activation: RAT, LIVER, S-9, PCB, Method: PREINCUBATION) was “inactive; negative”.

CCN1CCN=N1 was tested, and the mutagenic call [6] was “active; positive”.

CCC(CCC(C)=O)COC(=O)CCCCC(=O)O (stereo not drawn) was tested, and the mutagenic call (Test System: AMES SALMONELLA TYPHIMURIUM, Strain/Indicator: TA97, Metabolic Activation: NONE, Method: STANDARD PLATE) was “inactive; negative”, the mutagenic call (Test System: AMES SALMONELLA TYPHIMURIUM, Strain/Indicator: TA97, Metabolic Activation: RAT, LIVER, S-9, AROCLOR 1254, Method: STANDARD PLATE) was “inactive; negative” and the mutagenic call (Test System: AMES SALMONELLA TYPHIMURIUM, Strain/Indicator: TA97, Metabolic Activation: RAT, LIVER, S-9, DI(2-ETHYLHEXYL)PHTHALATE, Method: STANDARD PLATE) was “inactive; negative”. The mutagenic call [1] was “inactive; negative”, the mutagenic call [2] was “inactive; negative” and the mutagenic call (Test System: AMES SALMONELLA TYPHIMURIUM, Strain/Indicator: TA98, Metabolic Activation: RAT, LIVER, S-9, DI(2-ETHYLHEXYL)PHTHALATE, Method: STANDARD PLATE) was “inactive; negative”. The mutagenic call [3] was “inactive; negative”, the mutagenic call [4] was “inactive; negative” and the mutagenic call (Test System: AMES SALMONELLA TYPHIMURIUM, Strain/Indicator: TA100, Metabolic Activation: RAT, LIVER, S-9, DI(2-ETHYLHEXYL)PHTHALATE, Method: STANDARD PLATE) was “inactive; negative”. For the same compound, the mutagenic call [5] was “inactive; negative”, the mutagenic call (Test System: AMES SALMONELLA TYPHIMURIUM, Strain/Indicator: TA102, Metabolic Activation: RAT, LIVER, S-9, AROCLOR 1254, Method: STANDARD PLATE) was “inactive; negative” and the mutagenic call (Test System: AMES SALMONELLA TYPHIMURIUM, Strain/Indicator: TA102, Metabolic Activation: RAT, LIVER, S-9, DI(2-ETHYLHEXYL)PHTHALATE, Method: STANDARD PLATE) was “inactive; negative”.
